Some results are limits rather than exact numbers.

Series [1] relates to P. aeruginosa pyocyanin production. The experiment in a line: Pyocyanin assay. It counts as cell-based, P. aeruginosa PA14. To be noted: Pseudomonas aeruginosa, PA14, 16 h, read-out: IC50-value towards pyocyanin production, PA14 in PPGAS medium, 16 h. As to the method: Inhibition of P. aeruginosa pyocyanin production by compounds was determined photometrically as described before.[20] In short, an overnight culture of PA14 in PPGAS medium was washed, diluted in medium to a start OD600 of 0.02, and incubated for 16 h (37° C., 200 rpm, relative humidity 75%) in the presence of test compounds. Then, cultures were extracted with chloroform and re-extracted with 0.2 M HCl. Protonated red colored pyocyanin was determined by measuring OD520 and normalizing to OD600.

The nature of series [2]: Kinetic Turbidimetric Aqueous Solubility at room temperature for 5 min. To be noted: PBS buffer, kinetic from dmso stock, 2% DMSO. The format is physicochemical. The method, then: Kinetic Turbidimetric Aqueous Solubility at room temperature for 5 min. Test compound was diluted in PBS buffer to give a range of concentrations (typically 0.4, 2, 4, 20, 40, 100, and 200 μM, final DMSO concentration 2%) and incubated at room temperature for 5 min. Absorbance was measured at a wavelength of 620 nm and the solubility was estimated from the concentration of test compound that produces an increase in absorbance above the vehicle control (i.e., […]). Data was analyzed by fitting a four parameter sigmoidal function to the measured and normalized absorbances and AUC calculation providing access to Log S (decadic logarithm of the solubility).

In series [3] the target is PqsR (Pseudomonas aeruginosa, UniProt Q9I4X0). Put plainly: E. coli based β-galactosidase reporter gene assay (PqsR inverse agonistic activity). It counts as cell-based. Further details: expressed in transfected cells; host or cells: Escherichia coli DH5α. Summed up: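 E. coli DH5α carrying pEAL08-2 (tac-driven pqsR with pqsA-lacZ) was grown to OD600 0.2 and incubated with 0.001–10 μM compound plus 50 nM PQS for 2.5 h at 37 °C. β-Galactosidase activity was measured by ONPG conversion in permeabilized cells and normalized between the no-PQS and solvent controls. IC50 came from concentration variation.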
Sequence of PqsR (Q9I4X0 whole entry): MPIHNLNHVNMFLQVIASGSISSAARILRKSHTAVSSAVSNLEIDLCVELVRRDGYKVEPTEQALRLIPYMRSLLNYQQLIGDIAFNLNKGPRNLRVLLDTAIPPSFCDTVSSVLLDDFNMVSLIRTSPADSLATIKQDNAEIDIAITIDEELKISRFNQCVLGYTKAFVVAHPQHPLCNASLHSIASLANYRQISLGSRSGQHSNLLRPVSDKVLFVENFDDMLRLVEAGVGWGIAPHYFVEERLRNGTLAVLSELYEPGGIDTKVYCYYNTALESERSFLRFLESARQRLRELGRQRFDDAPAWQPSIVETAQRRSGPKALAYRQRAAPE

With `CC(C)Oc1ccc(-n2cc(CNc3ccnc(C(F)(F)F)c3)nn2)cc1Cl` [Compound 036, N-((1-(3-Chloro-4-isopropoxyphenyl)-1H-1,2,3-triazol-4-yl)methyl)-2-(trifluoromethyl)pyridin-4-amine], the IC50 in series [1] was at most 250 nM; in series [3], at most 50 nM. In series [2], this compound returned a solubility at 5 min of over 25 µM.

Take `CC(C)Oc1ccc(-n2cc(CNc3cc(Cl)nc(C(F)(F)F)c3)nn2)cc1Cl` [Compound 042, 2-Chloro-N-((1-(3-chloro-4-isopropoxyphenyl)-1H-1,2,3-triazol-4-yl)methyl)-6-(trifluoromethyl)pyridin-4-amine]: the IC50 was at most 250 nM in series [1] and at most 50 nM in series [3]. The solubility at 5 min in series [2] was over 10 µM.

Turning to `FC(F)(F)c1cc(NCc2cn(-c3ccc(OC4CCC4)c(Cl)c3)nn2)ccn1` [Compound 047, N-((1-(3-chloro-4-cyclobutoxyphenyl)-1H-1,2,3-triazol-4-yl)methyl)-2-(trifluoromethyl)pyridin-4-amine], the concentration for half-maximal inhibition (IC50) in series [1] was at most 250 nM; in series [3], at most 50 nM. In series [2], the solubility at 5 min is over 25 µM.

Regarding `N#Cc1cc(NCc2cn(-c3ccc(Oc4ccccc4)cc3)nn2)cc(Cl)n1` [Compound 051, 6-Chloro-4-(((1-(4-phenoxyphenyl)-1H-1,2,3-triazol-4-yl)methyl)amino)picolinonitrile], the values for the half-maximal inhibitory concentration (IC50) in series [1] and in series [3] were at most 250 nM and at most 50 nM, respectively. In series [2], this compound gave a solubility at 5 min of over 50 µM.

For `FC(F)(F)c1cc(SCc2cn(-c3cccc(Cl)c3)nn2)ccn1` [Compound 056, 4-(((1-(3-Chlorophenyl)-1H-1,2,3-triazol-4-yl)methyl)thio)-2-(trifluoromethyl)pyridine], the solubility at 5 min in series [2] is over 25 µM. Also, the IC50 in series [3] was in the range of 251 to 1000 nM.

In the case of `COc1ccc(-c2ncc(CNc3ccnc(C(F)(F)F)c3)s2)cc1C` [Compound 074, N-((2-(4-Methoxy-3-methylphenyl)thiazol-5-yl)methyl)-2-(trifluoromethyl)pyridin-4-amine], the concentration for half-maximal inhibition (IC50) was in the range of 251 to 1000 nM in series [1] and 51 to 250 nM in series [3]. The solubility at 5 min in series [2] is over 25 µM.

Regarding `FC(F)(F)c1cc(NCc2ncc(-c3ccc(Oc4ccccc4)cc3)s2)ccn1` [Compound 078, N-((5-(4-Phenoxyphenyl)thiazol-2-yl)methyl)-2-(trifluoromethyl)pyridin-4-amine], the concentration for half-maximal inhibition (IC50) in series [1] is at most 250 nM; in series [3], at most 50 nM. This compound had a solubility at 5 min in series [2] of over 10 µM.

With `FC(F)(F)c1cc(NCc2nc(-c3ccc(Oc4ccccc4)cc3)cs2)ccn1` [Compound 079, N-((4-(4-Phenoxyphenyl)thiazol-2-yl)methyl)-2-(trifluoromethyl)pyridin-4-amine], the solubility at 5 min in series [2] is over 25 µM. In series [3], the IC50 fell in the range of 251 to 1000 nM.

In series [2], `COc1ncc(-c2nc(CNc3ccnc(C(F)(F)F)c3)cs2)cc1Cl` [Compound 084, N-((2-(5-Chloro-6-methoxypyridin-3-yl)thiazol-4-yl)methyl)-2-(trifluoromethyl)pyridin-4-amine] had a solubility at 5 min of over 25 µM. The compound also displayed an IC50 in series [3] of 51 to 250 nM.

For the compound `FC(F)(F)c1cc(NCc2nnc(-c3ccc(Oc4ccccc4)cc3)[nH]2)ccn1` [Compound 095, N-((5-(4-Phenoxyphenyl)-4H-1,2,4-triazol-3-yl)methyl)-2-(trifluoromethyl)pyridin-4-amine], the half-maximal inhibitory concentration (IC50) was in the range of 251 to 1000 nM in series [1] and 51 to 250 nM in series [3]. In series [2], this compound returned a solubility at 5 min of over 25 µM.

`FC(F)(F)c1cc(NCc2cc(-c3ccc(Oc4ccccc4)cc3)n[nH]2)ccn1` [Compound 096, N-((3-(4-Phenoxyphenyl)-1H-pyrazol-5-yl)methyl)-2-(trifluoromethyl)pyridin-4-amine]: the IC50 was 251 to 1000 nM in series [1] and 51 to 250 nM in series [3]. For the same compound, in series [2], the solubility at 5 min was over 10 µM.

In the case of `COc1ncc(-c2ccc(CNc3ccnc(C(F)(F)F)c3)nc2)cc1Cl` [Compound 101, N-((5′-Chloro-6′-methoxy-[3,3′-bipyridin]-6-yl)methyl)-2-(trifluoromethyl)pyridin-4-amine], the solubility at 5 min in series [2] is over 25 µM. In series [3], this compound registered a 50% inhibitory concentration (IC50) of 51 to 250 nM.

In the case of `COc1ccc(-c2ccc(CNc3ccnc(C(F)(F)F)c3)nc2)cc1Cl` [Compound 104, N-((5-(3-Chloro-4-methoxyphenyl)pyridin-2-yl)methyl)-2-(trifluoromethyl)pyridin-4-amine], the IC50 is 1000 to 5000 nM in series [1] and 51 to 250 nM in series [3]. Moreover, the solubility at 5 min in series [2] was over 10 µM.

Turning to `FC(F)(F)c1cc(NCc2cnc(-c3ccc(C4CC4)cc3)nc2)ccn1` [Compound 107, N-((2-(4-Cyclopropylphenyl)pyrimidin-5-yl)methyl)-2-(trifluoromethyl)pyridin-4-amine], the half-inhibitory concentration (IC50) lay in the range of 251 to 1000 nM in series [1] and 51 to 250 nM in series [3]. Moreover, in series [2], the solubility at 5 min was over 10 µM.

For `FC(F)(F)c1cc(SCc2ccc(-c3ccc(Cl)nc3)cn2)ccn1` [Compound 112, 6-Chloro-6′-(((2-(trifluoromethyl)pyridin-4-yl)thio)methyl)-3,3′-bipyridine], the IC50 in series [1] fell in the range of 1000 to 5000 nM; in series [3], 51 to 250 nM. The compound further showed a solubility at 5 min in series [2] of over 25 µM.

On to `Nc1cc(SCc2nc3cc(Cl)c(Cl)cc3[nH]2)nc(C(F)(F)F)n1` [Compound 117, 6-(((5,6-Dichloro-1H-benzo[d]imidazol-2-yl)methyl)thio)-2-(trifluoromethyl)pyrimidin-4-amine], for which the solubility at 5 min in series [2] is over 50 µM. This compound registered an IC50 in series [3] of 51 to 250 nM.

`FC(F)(F)c1cc(SCc2nc3cc(Cl)c(Cl)cc3[nH]2)ccn1` [Compound 119, 5,6-Dichloro-2-(((2-(trifluoromethyl)pyridin-4-yl)thio)methyl)-1H-benzo[d]imidazole]: the IC50 in series [1] lay within 1000 to 5000 nM; in series [3], 51 to 250 nM. The solubility at 5 min in series [2] was over 25 µM.

Regarding `FC(F)(F)c1cc(OCc2nc3cc(Cl)c(Cl)cc3[nH]2)ccn1` [Compound 120, 5,6-Dichloro-2-(((2-(trifluoromethyl)pyridin-4-yl)oxy)methyl)-1H-benzo[d]imidazole], the solubility at 5 min in series [2] is over 50 µM. The IC50 in series [3] was 251 to 1000 nM.

Take `Fc1cccc(Oc2ccc(-n3cc(CNc4ccnc(C(F)(F)F)c4)nn3)cc2)c1` [Compound 145, N-((1-(4-(3-fluorophenoxy)phenyl)-1H-1,2,3-triazol-4-yl)methyl)-2-(trifluoromethyl)pyridin-4-amine]: the half-inhibitory concentration (IC50) in series [1] is at most 250 nM; in series [3], at most 50 nM. In addition, the solubility at 5 min in series [2] was over 25 µM.

With `FC(F)(F)c1cc(NCc2cn(-c3ccc(OC4CCOC4)c(Cl)c3)nn2)ccn1` (stereo not drawn) [Compound 153, N-((1-(3-chloro-4-((tetrahydrofuran-3-yl)oxy)phenyl)-1H-1,2,3-triazol-4-yl)methyl)-2-(trifluoromethyl)pyridin-4-amine], the values for the IC50 in series [1] and in series [3] were 251 to 1000 nM and at most 50 nM, respectively. Moreover, the solubility at 5 min in series [2] is over 25 µM.

Turning to `FC(F)(F)c1cc(NCc2cn(-c3ccc(OC4CC4)c(Cl)c3)nn2)ccn1` [Compound 154, N-((1-(3-chloro-4-cyclopropoxyphenyl)-1H-1,2,3-triazol-4-yl)methyl)-2-(trifluoromethyl)pyridin-4-amine], the IC50 in series [1] is 251 to 1000 nM; in series [3], at most 50 nM. The compound further displayed a solubility at 5 min in series [2] of over 10 µM.

For `CC(C)Oc1ccc(-n2cc(CNc3ccnc([N+](=O)[O-])c3)nn2)cc1Cl` [Compound 157, N-((1-(3-chloro-4-isopropoxyphenyl)-1H-1,2,3-triazol-4-yl)methyl)-2-nitropyridin-4-amine], the IC50 in series [1] was at most 250 nM; in series [3], at most 50 nM. For the same compound, the solubility at 5 min in series [2] was over 10 µM.

As for `CC(C)Oc1ccc(-c2ncc(CNc3cc(Cl)nc(C(F)(F)F)c3)s2)cc1` [Compound 161, 2-Chloro-N-((2-(4-isopropoxyphenyl)thiazol-5-yl)methyl)-6-(trifluoromethyl)pyridin-4-amine], the half-maximal inhibitory concentration (IC50) in series [1] was at most 250 nM; in series [3], at most 50 nM. The compound also came in with a solubility at 5 min in series [2] of over 25 µM.

On to `Fc1ccc(Oc2ccc3[nH]c(CSc4ccnc(C(F)(F)F)c4)nc3c2)cc1` [Compound 173, 5-(4-fluorophenoxy)-2-(((2-(trifluoromethyl)pyridin-4-yl)thio)methyl)-1H-benzo[d]imidazole], for which the IC50 in series [1] was 251 to 1000 nM. The compound also gave a solubility at 5 min in series [2] of over 25 µM.

Turning to `Nc1cc(SCc2nc3cc(Oc4cccnc4)ccc3[nH]2)nc(C(F)(F)F)n1` [Compound 174, 6-(((5-(pyridin-3-yloxy)-1H-benzo[d]imidazol-2-yl)methyl)thio)-2-(trifluoromethyl)pyrimidin-4-amine], the IC50 in series [1] lay within 251 to 1000 nM. The compound also registered a solubility at 5 min in series [2] of at least 100 µM.

As for `N#Cc1cc(SCc2nc3cc(Oc4ccccc4)ccc3[nH]2)ccn1` [Compound 175, 4-(((5-phenoxy-1H-benzo[d]imidazol-2-yl)methyl)thio)picolinonitrile], in series [1], the IC50 was 251 to 1000 nM. Also, the solubility at 5 min in series [2] is over 25 µM.

Broadly, the IC50 is the concentration that gives 50% inhibition. The term solubility denotes the dissolved amount per volume that the medium holds. Read a high solubility as a readily soluble substance.

The values are drawn from US11883387B2, “PqsR inverse agonists” (HELMHOLTZ-ZENTRUM FÜR INFEKTIONSFORSCHUNG GMBH, priority 2018, dated 2024).
